11 molecules from ChEMBL document CHEMBL1123894, “Structure-activity relationships of cyclic opioid peptide analogues containing a phenylalanine residue in the 3-position” (J Med Chem, 1987) can be followed below.

Bridge positions count the residues as written; N and C are the ends. Square brackets hold non-standard residues; d marks the D form. Peptide text beside a SMILES is read from it. Orn = NCCC[C@H](N)C(=O)O

Assay [1] addresses Delta-type opioid receptor (Mus musculus, UniProt P32300). Put plainly: Inhibitory activity towards electrically induced contractions in mouse vas deferens expressing delta opioid receptor. The format is functional, tissue-based.
In assay [2] the target is T1, Mu-type opioid receptor (Cavia porcellus, UniProt P97266). Put plainly: Inhibitory activity towards electrically induced contractions in guinea pig ileum expressing Opioid receptor mu 1. The format is tissue-based.
T1 sequence (P97266 whole entry): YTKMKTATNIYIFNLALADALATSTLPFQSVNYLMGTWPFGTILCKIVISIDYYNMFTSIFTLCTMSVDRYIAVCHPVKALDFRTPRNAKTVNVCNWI
The target of assay [3] is T2, Mu-type opioid receptor (Rattus norvegicus, UniProt P33535). Description: Binding affinity towards Opioid receptor mu 1 in rat brain membrane using [3H]DAGO as radioligand. Format: cell membranes.
T2 sequence (P33535 whole entry): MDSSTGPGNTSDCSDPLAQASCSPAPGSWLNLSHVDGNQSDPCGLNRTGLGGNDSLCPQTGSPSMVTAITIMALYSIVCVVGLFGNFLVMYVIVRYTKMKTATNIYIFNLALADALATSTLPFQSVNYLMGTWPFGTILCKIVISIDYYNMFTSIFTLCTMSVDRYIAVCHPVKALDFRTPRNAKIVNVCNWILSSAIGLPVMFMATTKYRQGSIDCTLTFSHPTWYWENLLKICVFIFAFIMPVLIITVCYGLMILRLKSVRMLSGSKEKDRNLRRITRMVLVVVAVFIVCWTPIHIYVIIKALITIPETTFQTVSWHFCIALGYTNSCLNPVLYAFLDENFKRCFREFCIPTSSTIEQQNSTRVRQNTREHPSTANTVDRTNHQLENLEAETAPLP
Assay [4] deals with Delta-type opioid receptor (Rattus norvegicus, UniProt P33533). Description: Inhibition of [3H]DSLET binding to rat brain membrane Opioid receptor delta 1.
Chain of Delta-type opioid receptor (Rattus norvegicus, UniProt P33533) (P33533 whole entry): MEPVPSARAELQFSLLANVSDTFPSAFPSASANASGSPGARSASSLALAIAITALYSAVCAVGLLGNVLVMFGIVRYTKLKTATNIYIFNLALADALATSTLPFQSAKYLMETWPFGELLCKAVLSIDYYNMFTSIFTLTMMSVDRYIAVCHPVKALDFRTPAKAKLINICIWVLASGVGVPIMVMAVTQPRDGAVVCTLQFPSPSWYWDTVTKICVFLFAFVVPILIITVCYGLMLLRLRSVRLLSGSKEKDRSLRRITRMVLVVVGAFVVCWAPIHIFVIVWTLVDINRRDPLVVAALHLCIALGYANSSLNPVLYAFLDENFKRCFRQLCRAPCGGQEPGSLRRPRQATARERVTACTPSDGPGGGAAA
Assay [5] addresses T2, Mu-type opioid receptor. Description: Binding affinity towards mu Opioid receptor in rat brain membrane using [3H]DAGO as radioligand. Format: cell membranes.
The target of assay [6] is T1, Mu-type opioid receptor. Put plainly: Inhibitory activity towards electrically induced contractions in guinea pig ileum expressing mu opioid receptor. Format: tissue-based.
For assay [7], the target named is T1, Mu-type opioid receptor. Put plainly: Inhibitory activity towards Opioid receptor mu 1 using guinea pig ileum (GPI) assay was determined for the compound. The format is tissue-based.

Chain of Delta-type opioid receptor (Mus musculus, UniProt P32300) (P32300 whole entry): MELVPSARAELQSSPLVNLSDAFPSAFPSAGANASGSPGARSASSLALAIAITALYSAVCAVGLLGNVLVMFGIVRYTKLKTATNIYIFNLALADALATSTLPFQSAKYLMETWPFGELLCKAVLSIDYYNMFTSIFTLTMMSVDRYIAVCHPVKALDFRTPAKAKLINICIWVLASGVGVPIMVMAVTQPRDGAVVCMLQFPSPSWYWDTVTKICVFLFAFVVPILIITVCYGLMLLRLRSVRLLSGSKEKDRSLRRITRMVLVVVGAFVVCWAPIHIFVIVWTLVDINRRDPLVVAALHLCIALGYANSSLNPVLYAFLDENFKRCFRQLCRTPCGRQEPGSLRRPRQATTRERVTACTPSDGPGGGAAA

As a reminder, the IC50 is the concentration at which inhibition is half-maximal. Lower therefore signals greater potency in that assay. One may read the Ki as a measure of affinity in units of concentration, obtained from inhibition or displacement. Take `NC(=O)[C@@H]1CC(=O)NCCC[C@@H](NC(=O)[C@@H](N)Cc2ccc(O)cc2)C(=O)N[C@@H](CCc2ccccc2)C(=O)N1`: the half-maximal inhibitory concentration (IC50) in assay [1] stood at 1370 nM; on Mu-type opioid receptor [2] it was 111 nM. Further, the results for the Ki (at Mu-type opioid receptor [3]; in assay [4]) were 11.9 nM and 849 nM, respectively.

For `NC(=O)[C@@H]1CC(=O)NCCC[C@@H](NC(=O)[C@@H](N)Cc2ccc(O)cc2)C(=O)N[C@@H](C2CCCCC2)C(=O)N1`, the IC50 in assay [1] was found to be 1660 nM; on Mu-type opioid receptor [2] it was 18400 nM. Moreover, the Ki was 445 nM at Mu-type opioid receptor [5] and 3570 nM in assay [4].

With `NC(=O)[C@@H]1CCCNC(=O)C[C@@H](NC(=O)[C@@H](N)Cc2ccc(O)cc2)C(=O)N[C@@H](Cc2ccccc2)C(=O)N1` (H-Y[dD]F[Orn]-NH2; lactam 2-4), the results for the IC50 (in assay [1]; on Mu-type opioid receptor [2]) were 8570 nM and 522 nM, respectively. Besides, the Ki at Mu-type opioid receptor [3] stood at 9.55 nM; in assay [4], 1320 nM.

For the molecule `NC(=O)[C@@H]1CC(=O)NCCC[C@@H](NC(=O)[C@@H](N)Cc2ccc(O)cc2)C(=O)N[C@@H](Cc2ccccc2)C(=O)N1`, the IC50 in assay [1] stood at 3880 nM; against Mu-type opioid receptor [6], 36.2 nM. Besides, the Ki on Mu-type opioid receptor [3] came out at 10.4 nM; in assay [4] it was 2220 nM.

As for `CN1C(=O)[C@H](NC(=O)[C@@H](N)Cc2ccc(O)cc2)CCCNC(=O)C[C@@H](C(N)=O)NC(=O)[C@@H]1Cc1ccccc1`, the IC50 was found to be 1380 nM in assay [1] and 6460 nM against Mu-type opioid receptor [2]. Besides, the Ki on Mu-type opioid receptor [3] was determined as 3570 nM; in assay [4] it was 28100 nM.

In turn, `NC(=O)[C@@H]1CSSC[C@@H](NC(=O)[C@@H](N)Cc2ccc(O)cc2)C(=O)N[C@@H](Cc2ccccc2)C(=O)N1` yielded an IC50 against Mu-type opioid receptor [7] of 64.7 nM. Further, the inhibitory constant (Ki) on Mu-type opioid receptor [3] came out at 11 nM; in assay [4], 373 nM.

Regarding `NC(=O)[C@@H]1CC(=O)NCCC[C@H](NC(=O)[C@@H](N)Cc2ccc(O)cc2)C(=O)N[C@@H](Cc2ccccc2)C(=O)N1`, the IC50 in assay [1] was over 100000 nM; against Mu-type opioid receptor [2] it was 16800 nM. Also, the Ki is 4830 nM at Mu-type opioid receptor [5] and over 60000 nM in assay [4].

For the molecule `NC(=O)[C@@H]1CC(=O)NCCC[C@@H](NC(=O)[C@@H](N)Cc2ccc(O)cc2)C(=O)N[C@H](Cc2ccccc2)C(=O)N1`, the figures for the IC50 (in assay [1]; on Mu-type opioid receptor [2]) were over 8640 nM and over 21000 nM, respectively. The Ki is 3040 nM on Mu-type opioid receptor [3] and over 380000 nM in assay [4].

`NC(=O)[C@H]1CC(=O)NCCC[C@@H](NC(=O)[C@@H](N)Cc2ccc(O)cc2)C(=O)N[C@@H](Cc2ccccc2)C(=O)N1`: the 50% inhibitory concentration (IC50) is 4810 nM in assay [1] and 632 nM against Mu-type opioid receptor [2]. Also, the inhibitory constant (Ki) at Mu-type opioid receptor [3] amounted to 21.7 nM; in assay [4] it was 422 nM.

Turning to `NC(=O)[C@@H]1CC(=O)NCCC[C@@H](NC(=O)[C@@H](N)Cc2ccc(O)cc2)C(=O)N[C@@H](Cc2ccc([N+](=O)[O-])cc2)C(=O)N1`, the IC50 is over 100000 nM in assay [1] and 2340 nM at Mu-type opioid receptor [2]. In addition, the values for the Ki (on Mu-type opioid receptor [3]; in assay [4]) were 273 nM and 5060 nM, respectively.

With `NC(=O)[C@@H]1CCNC(=O)C[C@@H](NC(=O)[C@@H](N)Cc2ccc(O)cc2)C(=O)N[C@@H](Cc2ccccc2)C(=O)N1`, the values for the IC50 (in assay [1]; against Mu-type opioid receptor [2]) were 2030 nM and 279 nM, respectively. The Ki on Mu-type opioid receptor [3] is 24.8 nM; in assay [4] it was 4170 nM.
